Source: patent US4430339A, “Substituted oxiranecarboxylic acids, their preparation and their use as medicaments” (Byk Gulden Lomberg Chemische Fabrik Gesellschaft mit …, priority 1980, dated 1984)
Like-named read-outs stand apart in the source and are kept apart here.

How the values were obtained:
[1] = test system: blood glucose concentration; test: Determination of glucose in the blood after a single oral administration (fasted, metabolically healthy rats); parameters: species or system Sprague-Dawley rats; settings: Rattus norvegicus, read-out: Change in the blood glucose concentration (in %) in vivo (maximum, relative to the control group)
Procedure: Table I reflects investigations of the effect of representative compounds according to the invention on the blood glucose concentration of fasting, metaboically healthy rats. Column A in each case gives the maximum lowering of the blood glucose concentration of rats which have been fasted (in %, relative to the control group) which is observed in the course of 6 hours after single oral administration of 0.6 mmole of substance/kg of body weight. Column B provides data relating to acute toxicity (LD50; mice, peroral administration).
Column A = maximum change in the blood glucose concentration (in %,
relative to the control animals) in vivo in rats which have been fasted a
1. Determination of glucose in the blood after a single oral administration.
Young male Sprague-Dawley rats (body weight: 150 to 200 g) are used. The animals (6 animals per dose) are kept in Makrolon cages with up to 4 animals per cage (ambient temperature: 23° C., relative atmospheric humidity: 55%, fixed day/night rhythm [12/12 hours], standard diet: Altromin®). The rats are deprived of the feed 18 hours before the first sample of blood is taken. Water is available ad libitum. Samples of blood are taken from the postorbital plexus by puncture immediately before and 2, 4 and 6 hours after administration of the substance.
After deproteinization with perchloric acid, the glucose in the blood is determined by means of the enzymatic HK/G-6-PDH method of R. Richterich [Klinische Chemie, Theorie und Praxis, (Clinical Chemistry, Theory and Practice), 3rd edition, 1971, S. Karger Verlag, Zurich-Basle, page 275]. A control group (10 animals, treated with pure solvent) is also investigated in each case for comparison.

in vivo = settings: mouse, po, mice p.o., observation time 7 days, read-out: Acute toxicity LD50 (converted)
Procedure: Column B provides data relating to acute toxicity (LD50; mice, peroral administration).
2. Determination of the toxicity.
Various doses of the substances (volume: 10 ml/kg) are administered orally by means of a stomach tube. The observation time is 7 days.

[2] = fasted rats, single oral administration of 0.6 mmole/kg, maximum in the course of 6 hours

Compound	change in vivo at 600 µmol/kg ([1]; po, 6 h)	change in vivo at 600 µmol/kg [1, 2]	LD50 (in vivo)
CCCCNC(=N)NC(=N)N [Serial No. 1, Buformin, reference compound]	-8%		
[H]/N=C(/N)N/C(=N/[H])NCCc1ccccc1 [Serial No. 2, Phenformin, reference compound]		-6%	
CCOC(=O)C1(CCCC2CCCCC2)CO1 (stereo not shown) [Serial No. 3, 2-(3-Cyclohexylpropyl)-oxirane-2-carboxylic acid ethyl ester]		-24%	1400 mg/kg
CCOC(=O)C1(CCCCCC2CCCCC2)CO1 (stereo not shown) [Serial No. 4, 2-(5-Cyclohexylpentyl)-oxirane-2-carboxylic acid ethyl ester]		-48%	520 mg/kg
CCOC(=O)C1(CCCC2CCCC2)CO1 (stereo not shown) [Serial No. 5, 2-(3-Cyclopentylpropyl)-oxirane-2-carboxylic acid ethyl ester]		-15%	2400 mg/kg
CCOC(=O)C1(CCCCC2CCCC2)CO1 (stereo not shown) [Serial No. 6, 2-(4-Cyclopentylbutyl)-oxirane-2-carboxylic acid ethyl ester]		-21%	1600 mg/kg
CCOC(=O)C1(CCOCCCC2CCCCC2)CO1 (stereo not shown) [Serial No. 7, 2-[2-(3-Cyclohexylpropyloxy)-ethyl]-oxirane-2-carboxylic acid ethyl ester]		-30%	570 mg/kg
CCOC(=O)C1(CCCC2CCCCCC2)CO1 (stereo not shown) [Serial No. 8, 2-(3-Cycloheptylpropyl)-oxirane-2-carboxylic acid ethyl ester]		-22%	790 mg/kg
CCOC(=O)C1(CCCCCC2CCCCCC2)CO1 (stereo not shown) [Serial No. 9, 2-(5-Cycloheptylpentyl)-oxirane-2-carboxylic acid ethyl ester]		-18%	330 mg/kg
